inhibition, IC50 and Ki data for three compounds are collected here from ChEMBL document CHEMBL1177793, “Synthesis and evaluation of novel phosphate ester analogs as neutral sphingomyelinase inhibitors” (Bioorg Med Chem Lett, 2010).

The test system of experiment [1] is Bacillus cereus. Kind of experiment: Inhibition of Bacillus cereus sphingomyelinase expressed in Bacillus subtilis ISW1214 assessed as sphingomyeline liposome degradation at 20 to 100 uM after 30 mins.
In experiment [2] the test system is Bacillus cereus. Kind of experiment: Inhibition of Bacillus cereus sphingomyelinase expressed in Bacillus subtilis ISW1214 assessed as sphingomyeline liposome degradation after 30 mins.
Experiment [3] is described as follows: Inhibition of Bacillus cereus sphingomyelinase expressed in Bacillus subtilis ISW1214 assessed as [14C]sphingomyeline hydrolysis after 30 mins by liquid scintillation counting.
Experiment [4] in a line: Competitive inhibition of Bacillus cereus sphingomyelinase expressed in Bacillus subtilis ISW1214 after 30 mins by Lineweaver-Burke plot analysis.

Molecules are shown by their SMILES. Calls of active or inactive are those of the source. The calls are words filed in the database; no cut-off is given here.

Consider `c1ccc(-c2ccccn2)nc1`, for which, in experiment [1], the inhibition entry was “inactive”. As for `CCCCCCCCCCCCC/C=C/[C@@H](O)[C@H](COCc1cccc(-c2ccccn2)n1)NC(=O)CCCCC`, the inhibition result in experiment [2] is “Dose-dependent effect”. For the same compound, in experiment [3], the half-maximal inhibitory concentration (IC50) (as a rule, the concentration that gives 50% inhibition) turned out to be 1.2 µM. Also, the Ki – broadly, the equilibrium dissociation constant of an inhibitor or competing ligand from its target – in experiment [4] came out at 5.2 µM. For the compound `CCCCCCCCCCCCC/C=C/[C@@H](OCc1cccc(-c2ccccn2)n1)[C@H](CO)NC(=O)CCCCC`, the inhibition result in experiment [1] was “inactive”.
